Target: T1, Y2 receptors (Homo sapiens, UniProt P49146)
T1 construct: endogenous in cells; host or cells: KAN-Ts cells (membranes)
T1 sequence (P49146 1-381): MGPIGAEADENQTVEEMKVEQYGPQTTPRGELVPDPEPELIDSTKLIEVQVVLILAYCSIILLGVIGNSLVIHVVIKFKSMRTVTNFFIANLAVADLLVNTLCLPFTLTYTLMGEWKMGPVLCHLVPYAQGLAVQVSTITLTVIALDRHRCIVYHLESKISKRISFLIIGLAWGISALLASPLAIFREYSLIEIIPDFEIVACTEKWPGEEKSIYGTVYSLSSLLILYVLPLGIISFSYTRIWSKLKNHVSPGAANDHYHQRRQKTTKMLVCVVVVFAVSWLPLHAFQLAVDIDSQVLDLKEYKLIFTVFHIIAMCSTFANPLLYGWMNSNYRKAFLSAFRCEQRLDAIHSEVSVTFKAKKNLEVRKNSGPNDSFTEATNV
Assay: Radioligand binding assay ([125I]PYY, KAN-Ts cell membranes)
Conditions: Table 2, [125I]PYY 80 pM, average of results, read-out: IC50
Summary of the method: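 IC50 values are means of three to eight experiments run in duplicate, fitted sigmoidally against specific binding (defined by […]). Competition used 80 pM [^125I]PYY for 1 h at room temperature on KAN-Ts membranes carrying native Y2, with filtration and scintillation counting.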

| Structure (SMILES) | IC50 [nM] |
| --- | --- |
| CCC(CC)C(=O)Nc1ccc(N2CCN(C(C(=O)N3CCC(F)(F)C3)c3ccc(F)cc3)CC2)c(F)c1 (stereo not shown) [Example 198, N-(4-{4-[2-(3,3-Difluoro-pyrrolidin-1-yl)-1-(4-fluoro-phenyl)-2-oxo-ethyl]-piperazin-1-yl}-3-fluoro-phenyl)-2-ethyl-butyramide] | 350 |
| CCC(CC)C(=O)Nc1ccc(N2CCN(C(C(=O)N3CCC(F)(F)C3)c3cccc(F)c3)CC2)c(F)c1 (stereo not shown) [Example 199, N-(4-{4-[2-(3,3-Difluoro-pyrrolidin-1-yl)-1-(3-fluoro-phenyl)-2-oxo-ethyl]-piperazin-1-yl}-3-fluoro-phenyl)-2-ethyl-butyramide] | 148 |
| CCC(CC)C(=O)Nc1ccc(N2CCN(C(C(=O)N(CC)CC)c3cc(Br)ccc3F)CC2)c(F)c1 (stereo not shown) [Example 200, N-(4-{4-[(5-Bromo-2-fluoro-phenyl)-diethylcarbamoyl-methyl]-piperazin-1-yl}-3-fluoro-phenyl)-2-ethyl-butyramide] | 15 |
| CCC(CC)C(=O)Nc1ccc(N2CCN(C(C(=O)N(CC)CC)c3ccc(F)c(F)c3)CC2)c(F)c1 (stereo not shown) [Example 201, N-(4-{4-[Diethylcarbamoyl-(3,4-difluoro-phenyl)-methyl]-piperazin-1-yl}-3-fluoro-phenyl)-2-ethyl-butyramide] | 330 |
| CCN(CC)C(=O)C(c1ccccc1)N1CCN(c2ccc(NC(=O)C3CCCC3)cn2)CC1 (stereo not shown) [Example 202, Cyclopentanecarboxylic acid {6-[4-(diethylcarbamoyl-phenyl-methyl)-piperazin-1-yl]-pyridin-3-yl}-amide] | 900 |
| CCC(CC)C(=O)Nc1ccc(N2CCN(C(C(=O)N(CC)CC)c3ccccc3)CC2)nc1 (stereo not shown) [Example 203, N-{6-[4-(Diethylcarbamoyl-phenyl-methyl)-piperazin-1-yl]-pyridin-3-yl}-2-ethyl-butyramide] | 735 |
| CCN(CC)C(=O)C(c1ccccc1)C1CCN(c2ccc(NC(=O)C3CCCC3)cn2)CC1 (stereo not shown) [Example 204, Cyclopentanecarboxylic acid [4-(diethylcarbamoyl-phenyl-methyl)-3,4,5,6-tetrahydro-2H-[1,2′]bipyridinyl-5′-yl]-amide] | 400 |
| CCC(CC)C(=O)Nc1ccc(N2CCC(C(C(=O)N(CC)CC)c3ccccc3)CC2)nc1 (stereo not shown) [Example 205, N-[4-(Diethylcarbamoyl-phenyl-methyl)-3,4,5,6-tetrahydro-2H-[1,2′]bipyridinyl-5′-yl]-2-ethyl-butyramide] | 300 |
| CCC(CC)C(=O)Nc1ccc(N2CCC(C(C(=O)N3CCC(F)CC3)c3ccccc3)CC2)c(F)c1 (stereo not shown) [Example 206, 2-Ethyl-N-(3-fluoro-4-{4-[2-(4-fluoro-piperidin-1-yl)-2-oxo-1-phenyl-ethyl]-piperidin-1-yl}-phenyl)-butyramide] | 20 |
| CCC(CC)C(=O)Nc1ccc(N2CCC(C(C(=O)N3CC(F)(F)C3)c3ccccc3)CC2)c(F)c1 (stereo not shown) [Example 207, N-(4-{4-[2-(3,3-Difluoro-azetidin-1-yl)-2-oxo-1-phenyl-ethyl]-piperidin-1-yl}-3-fluoro-phenyl)-2-ethyl-butyramide] | 70 |
| CCC(CC)C(=O)Nc1ccc(N2CCC(C(C(=O)N3CCC(F)(F)CC3)c3ccccc3)CC2)c(F)c1 (stereo not shown) [Example 208, N-(4-{4-[2-(4,4-Difluoro-piperidin-1-yl)-2-oxo-1-phenyl-ethyl]-piperidin-1-yl}-3-fluoro-phenyl)-2-ethyl-butyramide] | 20 |
| CCC(CC)C(=O)Nc1ccc(N2CCC(C(C(=O)N3CCC3)c3ccccc3)CC2)c(F)c1 (stereo not shown) [Example 209, N-{4-[4-(2-Azetidin-1-yl-2-oxo-1-phenyl-ethyl)-piperidin-1-yl]-3-fluoro-phenyl}-2-ethyl-butyramide] | 100 |
| CCC(CC)C(=O)Nc1ccc(N2CCC(C(C(=O)N3CCC(F)(F)C3)c3ccccc3)CC2)c(F)c1 (stereo not shown) [Example 210, N-(4-{4-[2-(3,3-Difluoro-pyrrolidin-1-yl)-2-oxo-1-phenyl-ethyl]-piperidin-1-yl}-3-fluoro-phenyl)-2-ethyl-butyramide] | 25 |
| CCC(CC)C(=O)Nc1ccc(N2CCC(C(C(=O)N3CCCC3)c3ccccc3)CC2)c(F)c1 (stereo not shown) [Example 211, 2-Ethyl-N-{3-fluoro-4-[4-(2-oxo-1-phenyl-2-pyrrolidin-1-yl-ethyl)-piperidin-1-yl]-phenyl}-butyramide] | 26 |
| CCC(CC)C(=O)Nc1ccc(N2CCC(C(C(=O)NC3CC3)c3ccccc3)CC2)c(F)c1 (stereo not shown) [Example 212, N-{4-[4-(Cyclopropylcarbamoyl-phenyl-methyl)-piperidin-1-yl]-3-fluoro-phenyl}-2-ethyl-butyramide] | 55 |
| CCC(CC)C(=O)Nc1ccc(N2CCC(C(C(=O)Nc3nc(C)cs3)c3ccccc3)CC2)c(F)c1 (stereo not shown) [Example 213, 2-Ethyl-N-(3-fluoro-4-{4-[(4-methyl-thiazol-2-ylcarbamoyl)-phenyl-methyl]-piperidin-1-yl}-phenyl)-butyramide] | 30 |

| Structure (SMILES) | IC50 [nM] |
| --- | --- |
| CCC(CC)C(=O)Nc1ccc(N2CCC(C(C(=O)OC)c3ccccc3)CC2)c(F)c1 (stereo not shown) [Example 214, {1-[4-(2-Ethyl-butyrylamino)-2-fluoro-phenyl]-piperidin-4-yl}-phenyl-acetic acid methyl ester] | 40 |
| CCC(CC)C(=O)Nc1ccc(N2CCC(C(C(=O)N3CCCCC3)c3ccccc3)CC2)c(F)c1 (stereo not shown) [Example 215, 2-Ethyl-N-{3-fluoro-4-[4-(2-oxo-1-phenyl-2-piperidin-1-yl-ethyl)-piperidin-1-yl]-phenyl}-butyramide] | 100 |
| CCC(CC)C(=O)Nc1ccc(N2CCC(C(C(=O)N3CCN(C)CC3)c3ccccc3)CC2)c(F)c1 (stereo not shown) [Example 216, 2-Ethyl-N-(3-fluoro-4-{4-[2-(4-methyl-piperazin-1-yl)-2-oxo-1-phenyl-ethyl]-piperidin-1-yl}-phenyl)-butyramide] | ≥ 10000 |
| CCC(CC)C(=O)Nc1ccc(N2CCC(C(C(=O)N(CC)CC)c3ccccc3)CC2)c(C#N)c1 (stereo not shown) [Example 217, N-{3-Cyano-4-[4-(diethylcarbamoyl-phenyl-methyl)-piperidin-1-yl]-phenyl}-2-ethyl-butyramide] | 10 |
| CCC(CC)C(=O)Nc1ccc(N2CCC(C(C(=O)N(CC)CC)c3ccccc3)CC2)c(Br)c1 (stereo not shown) [Example 219, N-{3-Bromo-4-[4-(diethylcarbamoyl-phenyl-methyl)-piperidin-1-yl]-phenyl}-2-ethyl-butyramide] | 37 |
| CCN(CC)C(=O)C(c1ccccc1)C1CCN(c2ccc(NC(=O)C3CCCC3)cc2F)CC1 (stereo not shown) [Example 220, Cyclopentanecarboxylic acid {4-[4-(diethylcarbamoyl-phenyl-methyl)-piperidin-1-yl]-3-fluoro-phenyl}-amide] | 40 |
| CCN(CC)C(=O)C(c1ccccc1)N1CCN(c2ccc(NC(=O)C3CCCC3)cc2C#N)CC1 (stereo not shown) [Example 221, Cyclopentanecarboxylic acid {3-cyano-4-[4-(diethylcarbamoyl-phenyl-methyl)-piperazin-1-yl]-phenyl}-amide] | 48 |
| CCN(CC)C(=O)C(c1ccccc1)C1CCN(c2ccc(NC(=O)C3CCC3)cc2F)CC1 (stereo not shown) [Example 222, Cyclobutanecarboxylic acid {4-[4-(diethylcarbamoyl-phenyl-methyl)-piperidin-1-yl]-3-fluoro-phenyl}-amide] | 63 |
| CCC(CC)C(=O)Nc1ccc(N2CCN(C(C(=O)N(CC)CC)c3ccccc3)CC2)c(Br)c1 (stereo not shown) [Example 223, N-{3-Bromo-4-[4-(diethylcarbamoyl-phenyl-methyl)-piperazin-1-yl]-phenyl}-2-ethyl-butyramide] | 80 |
| CCN(CC)C(=O)C(c1ccccc1)N1CCN(c2ccc(NC(=O)C3CCCC3)c(F)c2C#N)CC1 (stereo not shown) [Example 224, Cyclopentanecarboxylic acid {3-cyano-4-[4-(diethylcarbamoyl-phenyl-methyl)-piperazin-1-yl]-2-fluoro-phenyl}-amide] | 92 |
| CCC(CC)C(=O)Nc1cc(F)c(N2CCN(C(C(=O)N(CC)CC)c3ccccc3)CC2)cc1F (stereo not shown) [Example 225, N-{4-[4-(Diethylcarbamoyl-phenyl-methyl)-piperazin-1-yl]-2,5-difluoro-phenyl}-2-ethyl-butyramide] | 107 |
| CCC(CC)C(=O)Nc1cc(F)c(N2CCN(C(C(=O)N(CC)CC)c3ccccc3)CC2)c(F)c1 (stereo not shown) [Example 226, N-{4-[4-(Diethylcarbamoyl-phenyl-methyl)-piperazin-1-yl]-3,5-difluoro-phenyl}-2-ethyl-butyramide] | 95 |
| CCC(CC)C(=O)Nc1ccc(N2CCN(C(C(=O)N(CC)CC)c3ccccc3)CC2)c(C#N)c1F (stereo not shown) [Example 227, N-{3-Cyano-4-[4-(diethylcarbamoyl-phenyl-methyl)-piperazin-1-yl]-2-fluoro-phenyl}-2-ethyl-butyramide] | 116 |
| CCN(CC)C(=O)C(c1ccccc1)N1CCN(c2ccc(NC(=O)C3CC4CCC3C4)cc2F)CC1 (stereo not shown) [Example 228, Bicyclo[2.2.1]heptane-2-carboxylic acid {4-[4-(diethylcarbamoyl-phenyl-methyl)-piperazin-1-yl]-3-fluoro-phenyl}-amide] | 120 |
| CCN(CC)C(=O)C(c1ccccc1)C1CCN(c2ccc(NC(=O)C3CC3)cc2F)CC1 (stereo not shown) [Example 229, Cyclopropanecarboxylic acid {4-[4-(diethylcarbamoyl-phenyl-methyl)-piperidin-1-yl]-3-fluoro-phenyl}-amide] | 120 |
